target: PI3Kβ (Homo sapiens (Human), UniProt P42338); assay: In vitro enzyme inhibition assay (Kinase Glo based enzyme activity assay); format: biochemical; conditions: Test (a), human recombinant enzyme; read-out: PI3Kβ inhibition, IC50
Experimental: (a) In Vitro Enzyme Inhibition Assay
The inhibition of PI3Kβ, PI3Kα, PI3Kγ and PI3Kδ was evaluated in a Kinase Glo based enzyme activity assay using human recombinant enzymes. The assay measures depletion of ATP after incubation with enzyme, PIP2 and ATP plus compound. ATP at the end of the reaction is detected by addition of Kinase Glo reagent, in this the Ultra Glo™ luciferase (Promega) uses the ATP as a substrate to catalyze the mono-oxygenation of luciferin and the generation of light. A direct relationship exists between the luminescence measured with the Kinase-Glo Plus Reagent and the amount of ATP remaining in a completed kinase reaction and luminescence is inversely related to kinase activity. Twelve different compound concentrations were tested and raw data from the inhibition of PI3 Kb, PI3Kα, PI3Kγ and PI3Kδ was plotted versus inhibitor concentration.
Compounds in 100% DMSO were added to assay plates by acoustic dispensing. PI3Kβ was added in a Tris buffer (50 mM Tris pH7.4, 0.05% CHAPS, 2.1 mM DTT, and 10 mM MgCl2) and allowed to preincubate with compound for 20 minutes prior to addition of substrate solution containing PIP2 and ATP. The enzyme reaction was stopped after 80 minutes by the addition of Kinase Glo detection solution. Plates were left for 30 minutes at room temperature then read on a Pherastar Instrument (Luminescence ATP 384 program) setting gain on max well. The final concentration of DMSO, ATP and PIP2 in the assay were, 1%, 80 μM, and 80 μM respectively.
IC50 values were calculated using a log curve fitting to a non-linear regression package, fitting raw data to inhibitor concentration.

Chain of PI3Kβ (P42338 whole entry): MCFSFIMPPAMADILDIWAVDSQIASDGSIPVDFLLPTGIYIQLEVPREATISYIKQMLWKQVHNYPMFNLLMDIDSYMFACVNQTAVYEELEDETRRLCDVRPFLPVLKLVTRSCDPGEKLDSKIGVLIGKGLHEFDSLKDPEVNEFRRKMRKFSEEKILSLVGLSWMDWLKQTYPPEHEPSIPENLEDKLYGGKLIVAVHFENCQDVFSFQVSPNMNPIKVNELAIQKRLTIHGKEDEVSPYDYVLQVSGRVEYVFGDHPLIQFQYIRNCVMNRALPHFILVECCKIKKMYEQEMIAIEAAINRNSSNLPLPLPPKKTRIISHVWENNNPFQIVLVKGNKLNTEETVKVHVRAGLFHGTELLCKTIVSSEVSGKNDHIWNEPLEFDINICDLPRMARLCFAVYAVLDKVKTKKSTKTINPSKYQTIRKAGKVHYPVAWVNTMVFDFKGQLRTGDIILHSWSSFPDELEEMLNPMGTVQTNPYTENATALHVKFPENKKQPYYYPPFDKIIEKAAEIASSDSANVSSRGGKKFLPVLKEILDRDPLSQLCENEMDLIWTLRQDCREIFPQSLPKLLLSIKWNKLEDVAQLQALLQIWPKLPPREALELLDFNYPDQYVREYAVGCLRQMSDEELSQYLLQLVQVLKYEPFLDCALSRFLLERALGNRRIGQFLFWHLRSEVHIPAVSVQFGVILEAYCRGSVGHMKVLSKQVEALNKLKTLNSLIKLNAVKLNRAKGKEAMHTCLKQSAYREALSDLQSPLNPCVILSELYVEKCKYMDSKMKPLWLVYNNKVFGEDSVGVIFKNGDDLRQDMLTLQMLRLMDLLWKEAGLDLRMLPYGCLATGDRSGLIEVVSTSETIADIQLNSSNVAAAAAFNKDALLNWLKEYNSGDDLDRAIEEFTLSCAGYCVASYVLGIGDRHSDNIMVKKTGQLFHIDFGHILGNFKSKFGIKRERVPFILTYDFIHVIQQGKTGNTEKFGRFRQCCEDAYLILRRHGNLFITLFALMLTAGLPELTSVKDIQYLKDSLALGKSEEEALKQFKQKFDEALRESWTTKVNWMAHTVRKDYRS
Chain of PI3Kβ (P27986 whole entry partner): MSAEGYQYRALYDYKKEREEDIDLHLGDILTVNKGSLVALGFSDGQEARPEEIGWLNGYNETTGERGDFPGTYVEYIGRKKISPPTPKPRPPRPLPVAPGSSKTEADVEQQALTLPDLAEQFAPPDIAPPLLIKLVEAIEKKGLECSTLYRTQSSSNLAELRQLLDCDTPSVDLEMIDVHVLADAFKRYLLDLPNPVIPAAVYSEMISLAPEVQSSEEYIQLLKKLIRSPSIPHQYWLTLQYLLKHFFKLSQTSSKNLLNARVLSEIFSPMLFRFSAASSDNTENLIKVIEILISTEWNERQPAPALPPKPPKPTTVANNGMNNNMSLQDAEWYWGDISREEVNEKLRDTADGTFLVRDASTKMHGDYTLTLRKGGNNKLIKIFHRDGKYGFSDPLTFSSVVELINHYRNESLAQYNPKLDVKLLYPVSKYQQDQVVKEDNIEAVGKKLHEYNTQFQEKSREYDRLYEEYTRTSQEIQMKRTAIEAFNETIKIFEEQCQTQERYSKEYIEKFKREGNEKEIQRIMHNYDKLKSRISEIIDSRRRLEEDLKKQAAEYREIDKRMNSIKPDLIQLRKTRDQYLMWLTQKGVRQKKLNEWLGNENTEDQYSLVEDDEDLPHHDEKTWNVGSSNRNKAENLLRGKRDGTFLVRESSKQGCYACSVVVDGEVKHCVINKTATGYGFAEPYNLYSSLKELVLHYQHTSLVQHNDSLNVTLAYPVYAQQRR

Structure (SMILES) | IC50 [nM]
CC(Nc1cccc(C#N)c1)c1cc(C(=O)N(C)C)cc2c(=O)cc(N3CCOCC3)oc12 (stereo not shown) [Example 3.18, 8-(1-(3-cyanophenylamino)ethyl)-N,N-dimethyl-2-morpholino-4-oxo-4H-chromene-6-carboxamide] | 10
CC(Nc1cccc(Cl)c1Cl)c1cc(C(=O)N(C)C)cc2c(=O)cc(N3CCOCC3)oc12 (stereo not shown) [Example 3.19, 8-(1-(2,3-dichlorophenylamino)ethyl)-N,N-dimethyl-2-morpholino-4-oxo-4H-chromene-6-carboxamide] | 5
C#Cc1cccc(NC(C)c2cc(C(=O)N(C)C)cc3c(=O)cc(N4CCOCC4)oc23)c1 (stereo not shown) [Example 3.20, 8-(1-(3-ethynylphenylamino)ethyl)-N,N-dimethyl-2-morpholino-4-oxo-4H-chromene-6-carboxamide] | 5
Cc1ccc(C#N)cc1NC(C)c1cc(C(=O)N(C)C)cc2c(=O)cc(N3CCOCC3)oc12 (stereo not shown) [Example 3.21, 8-(1-(5-cyano-2-methylphenylamino)ethyl)-N,N-dimethyl-2-morpholino-4-oxo-4H-chromene-6-carboxamide] | 114
Cc1ccc(F)cc1NC(C)c1cc(C(=O)N(C)C)cc2c(=O)cc(N3CCOCC3)oc12 (stereo not shown) [Example 3.22, 8-(1-(5-fluoro-2-methylphenylamino)ethyl)-N,N-dimethyl-2-morpholino-4-oxo-4H-chromene-6-carboxamide] | 4
Cc1cc(C#N)cc(NC(C)c2cc(C(=O)N(C)C)cc3c(=O)cc(N4CCOCC4)oc23)c1 (stereo not shown) [Example 3.23, 8-(1-(3-cyano-5-methylphenylamino)ethyl)-N,N-dimethyl-2-morpholino-4-oxo-4H-chromene-6-carboxamide] | 13
COc1ccc(F)cc1NC(C)c1cc(C(=O)N(C)C)cc2c(=O)cc(N3CCOCC3)oc12 (stereo not shown) [Example 3.24, 8-(1-(5-fluoro-2-methoxyphenylamino)ethyl)-N,N-dimethyl-2-morpholino-4-oxo-4H-chromene-6-carboxamide] | 6
COc1ccc(C#N)cc1NC(C)c1cc(C(=O)N(C)C)cc2c(=O)cc(N3CCOCC3)oc12 (stereo not shown) [Example 3.25, 8-(1-(5-cyano-2-methoxyphenylamino)ethyl)-N,N-dimethyl-2-morpholino-4-oxo-4H-chromene-6-carboxamide] | 212
CC(Nc1cc(F)ccc1Cl)c1cc(C(=O)N(C)C)cc2c(=O)cc(N3CCOCC3)oc12 (stereo not shown) [Example 3.26, 8-(1-(2-chloro-5-fluorophenylamino)ethyl)-N,N-dimethyl-2-morpholino-4-oxo-4H-chromene-6-carboxamide] | 4
CC(Nc1c(F)ccc(F)c1F)c1cc(C(=O)N(C)C)cc2c(=O)cc(N3CCOCC3)oc12 (stereo not shown) [Example 3.27, N,N-dimethyl-2-morpholino-4-oxo-8-(1-(2,3,6-trifluorophenylamino)ethyl)-4H-chromene-6-carboxamide] | 9
Cc1ccc(Cl)cc1NC(C)c1cc(C(=O)N(C)C)cc2c(=O)cc(N3CCOCC3)oc12 (stereo not shown) [Example 3.28, 8-(1-(5-chloro-2-methylphenylamino)ethyl)-N,N-dimethyl-2-morpholino-4-oxo-4H-chromene-6-carboxamide] | 4
Cc1c(C#N)cccc1NC(C)c1cc(C(=O)N(C)C)cc2c(=O)cc(N3CCOCC3)oc12 (stereo not shown) [Example 3.29, 8-(1-(3-cyano-2-methylphenylamino)ethyl)-N,N-dimethyl-2-morpholino-4-oxo-4H-chromene-6-carboxamide] | 5
COc1cc(F)cc(NC(C)c2cc(C(=O)N(C)C)cc3c(=O)cc(N4CCOCC4)oc23)c1 (stereo not shown) [Example 3.30, 8-(1-(3-fluoro-5-methoxyphenylamino)ethyl)-N,N-dimethyl-2-morpholino-4-oxo-4H-chromene-6-carboxamide] | 4
COc1c(F)cccc1NC(C)c1cc(C(=O)N(C)C)cc2c(=O)cc(N3CCOCC3)oc12 (stereo not shown) [Example 3.31, 8-(1-(3-fluoro-2-methoxyphenylamino)ethyl)-N,N-dimethyl-2-morpholino-4-oxo-4H-chromene-6-carboxamide] | 6
CC(Nc1c(F)ccc(Cl)c1F)c1cc(C(=O)N(C)C)cc2c(=O)cc(N3CCOCC3)oc12 (stereo not shown) [Example 3.32, 8-(1-(3-chloro-2,6-difluorophenylamino)ethyl)-N,N-dimethyl-2-morpholino-4-oxo-4H-chromene-6-carboxamide] | 8
CC(Nc1cc(Cl)cc(Cl)c1)c1cc(C(=O)N(C)C)cc2c(=O)cc(N3CCOCC3)oc12 (stereo not shown) [Example 3.33, 8-(1-(3,5-dichlorophenylamino)ethyl)-N,N-dimethyl-2-morpholino-4-oxo-4H-chromene-6-carboxamide] | 5
C#Cc1cc(F)cc(NC(C)c2cc(C(=O)N(C)C)cc3c(=O)cc(N4CCOCC4)oc23)c1 (stereo not shown) [Example 3.34, 8-(1-(3-ethynyl-5-fluorophenylamino)ethyl)-N,N-dimethyl-2-morpholino-4-oxo-4H-chromene-6-carboxamide] | 4
CC(Nc1cc(F)ccc1C#N)c1cc(C(=O)N(C)C)cc2c(=O)cc(N3CCOCC3)oc12 (stereo not shown) [Example 3.35, 8-(1-(2-cyano-5-fluorophenylamino)ethyl)-N,N-dimethyl-2-morpholino-4-oxo-4H-chromene-6-carboxamide] | 31
CC(Nc1cccc(F)c1C#N)c1cc(C(=O)N(C)C)cc2c(=O)cc(N3CCOCC3)oc12 (stereo not shown) [Example 3.36, 8-(1-(2-cyano-3-fluorophenylamino)ethyl)-N,N-dimethyl-2-morpholino-4-oxo-4H-chromene-6-carboxamide] | 24
CC(c1cc(C(=O)N(C)C)cc2c(=O)cc(N3CCOCC3)oc12)N(C)c1cc(F)cc(Cl)c1 (stereo not shown) [Example 3.37, 8-(1-((3-chloro-5-fluorophenyl)(methyl)amino)ethyl)-N,N-dimethyl-2-morpholino-4-oxo-4H-chromene-6-carboxamide] | 12
CC(c1cc(C(=O)N(C)C)cc2c(=O)cc(N3CCOCC3)oc12)N(C)c1cc(F)c(F)c(F)c1 (stereo not shown) [Example 3.38, N,N-dimethyl-8-(1-(methyl(3,4,5-trifluorophenyl)amino)ethyl)-2-morpholino-4-oxo-4H-chromene-6-carboxamide] | 17
CC(c1cc(C(=O)N(C)C)cc2c(=O)cc(N3CCOCC3)oc12)N(C)c1cc(F)cc(F)c1F (stereo not shown) [Example 3.39, N,N-dimethyl-8-(1-(methyl(2,3,5-trifluorophenyl)amino)ethyl)-2-morpholino-4-oxo-4H-chromene-6-carboxamide] | 21

The next lines start with the values.

IC50 [nM] | Structure (SMILES)
43 | CC(c1cc(C(=O)N(C)C)cc2c(=O)cc(N3CCOCC3)oc12)N(C)c1ccccc1 (stereo not shown) [Example 3.40, N,N-dimethyl-8-(1-(methyl(phenyl)amino)ethyl)-2-morpholino-4-oxo-4H-chromene-6-carboxamide]
14 | C#Cc1cc(F)cc(N(C)C(C)c2cc(C(=O)N(C)C)cc3c(=O)cc(N4CCOCC4)oc23)c1 (stereo not shown) [Example 3.41, 8-(1-((3-ethynyl-5-fluorophenyl)(methyl)amino)ethyl)-N,N-dimethyl-2-morpholino-4-oxo-4H-chromene-6-carboxamide]
4 | CCN(CC)C(=O)c1cc(C(C)Nc2cc(F)cc(F)c2)c2oc(N3CCOCC3)cc(=O)c2c1 (stereo not shown) [Example 4.01, 8-(1-(3,5-difluorophenylamino)ethyl)-N,N-diethyl-2-morpholino-4-oxo-4H-chromene-6-carboxamide]
4 | CC(Nc1cc(F)cc(F)c1)c1cc(C(=O)N2CCN(C)CC2)cc2c(=O)cc(N3CCOCC3)oc12 (stereo not shown) [Example 4.03, 8-(1-(3,5-difluorophenylamino)ethyl)-6-(4-methylpiperazine-1-carbonyl)-2-morpholino-4H-chromen-4-one]
4 | CC(Nc1cc(F)cc(F)c1)c1cc(C(=O)N2CCNCC2)cc2c(=O)cc(N3CCOCC3)oc12 (stereo not shown) [Example 4.04, 8-(1-(3,5-difluorophenylamino)ethyl)-2-morpholino-6-(piperazine-1-carbonyl)-4H-chromen-4-one]
8 | CC(Nc1cc(F)cc(F)c1)c1cc(C(=O)N2CCSCC2)cc2c(=O)cc(N3CCOCC3)oc12 (stereo not shown) [Example 4.05, 8-(1-(3,5-difluorophenylamino)ethyl)-2-morpholino-6-(thiomorpholine-4-carbonyl)-4H-chromen-4-one]
4 | CC(Nc1cc(F)cc(F)c1)c1cc(C(=O)N2CCCCCC2)cc2c(=O)cc(N3CCOCC3)oc12 (stereo not shown) [Example 4.06, 6-(azepane-1-carbonyl)-8-(1-(3,5-difluorophenylamino)ethyl)-2-morpholino-4H-chromen-4-one]
4 | CC(Nc1cc(F)cc(F)c1)c1cc(C(=O)N(C)CCO)cc2c(=O)cc(N3CCOCC3)oc12 (stereo not shown) [Example 4.07, 8-(1-(3,5-difluorophenylamino)ethyl)-N-(2-hydroxyethyl)-N-methyl-2-morpholino-4-oxo-4H-chromene-6-carboxamide]
3 | CC(Nc1cc(F)cc(F)c1)c1cc(C(=O)N2CCC(O)CC2)cc2c(=O)cc(N3CCOCC3)oc12 (stereo not shown) [Example 4.09, 8-(1-(3,5-difluorophenylamino)ethyl)-6-(4-hydroxypiperidine-1-carbonyl)-2-morpholino-4H-chromen-4-one]

Reference: patent publication US8673906B2, “Chromenone derivatives” (AstraZeneca AB, priority 2010, dated 2014)
